Measured values published in patent US20250171465A1, “AKT INHIBITORS” (Stablix, Inc., priority 2023, published 2025).

Experiments:
[1] = tested on: KU1919.1; assay: Cell Titer Glo (CTG) proliferation assay, KU1919; assay type: cell-based; conditions: Homo sapiens, KU-19-19; KU1919.1 cells, 72.0 hrs.; read-out: AVE CTG Proliferation KU1919.1 72.0 hrs.
Procedure: (§1) Seed cells in 40 μL of cell culture media into each well of 384-well cell culture plate, spin them at room temperature at 1,000 RPM for 1 minute and then transfer the plates into 37° C. 5% CO2 incubator overnight. Next day, treat cells with 40 nL of diluted compound and return to incubator. After compound treatment for 3 days, Add 30 μL of CellTiter-Glo reagent (Promega) into each well to be detected. Then place the plates at room temperature for 30 min followed by reading on EnVision. Inhibition activity calculated as % DMSO=100×(LumSample-Lum low control)/(Lum high control-Lum low control) where high control is from cells treated with 0.1% DMSO and Low control obtained from PBS only. Use XLFit (equation 201) to calculate IC50 (A+ ((B−A)/(1[…]((x/C)^D)))) where A: Bottom, B: Top, C: IC50, D: Slope.

[2] = tested on: MDAMB468.1; assay: Cell Titer Glo (CTG) proliferation assay, MDA-MB-468; assay type: cell-based; conditions: Homo sapiens, MDA-MB-468; MDAMB468.1 cells, 72.0 hrs.; read-out: AVE CTG Proliferation MDAMB468.1 72.0 hrs.
Procedure: as §1

| IC50 [2] [µM] | Structure (SMILES) | IC50 [1] [µM] |
| --- | --- | --- |
| > 10 | CCc1cccc(-c2cnc(C(=O)N3CCN(CC45CCC(NCC(=O)NCCNC[C@@H](C(=O)N6CCN(c7ncnc8c7[C@H](C)C[C@H]8O)CC6)c6ccc(Cl)cc6)(CC4)CO5)CC3)c(N)c2)c1 [Compound I-195] | > 10 |
| 1 to 5 | CCOc1cc(OC)ccc1CNCC(=O)N1CCCC(c2cccc(C(=O)N[C@@H](C(=O)N3CCN(CC4CCN(CC(=O)NCCN(C[C@@H](C(=O)N5CCN(c6nncc7c6[C@H](C)C[C@H]7O)CC5)c5ccc(Cl)cc5)C(C)C)CC4)CC3)C3CCCCC3)c2)C1 (stereo partly shown) [Compound I-171] | 0.5 to 1 |
| > 10 | CCc1cccc(-c2cnc(C(=O)N3CCC(OC4CCN(CC(=O)NCCNC[C@@H](C(=O)N5CCN(c6ncnc7c6[C@H](C)C[C@H]7O)CC5)c5ccc(Cl)cc5)CC4)CC3)c(NC(=O)CNCc3ccncn3)c2)c1 [Compound I-167] | > 10 |
| 1 to 5 | NC1(C(=O)N[C@@H](CCN2CCN(C(=O)CN3CCC(OC4CCN(C(=O)[C@H](NC(=O)c5cc(C6CCCN(C(=O)CNCc7ccc(F)cc7F)C6)ccc5F)C5CCCCC5)CC4)CC3)CC2)c2ccc(Cl)cc2)CCN(c2ncnc3[nH]ccc23)CC1 (stereo partly shown) [Compound I-225] | 1 to 5 |
| 5 to 10 | CCc1cccc(-c2cnc(C(=O)N3CCC(CN4CCN(CC(=O)NCCNC[C@@H](C(=O)N5CCN(c6ncnc7c6[C@H](C)C[C@H]7O)CC5)c5ccc(Cl)cc5)CC4)CC3)c(NC(=O)CN3CCOCC3)c2)c1 [Compound I-172] | 5 to 10 |
| 5 to 10 | NC1(C(=O)N[C@@H](CCN2CCN(C(=O)CN3CCC(OC4CCN(C(=O)c5cccc(C6CCCN(C(=O)CNCc7ccc(F)cc7F)C6)c5)CC4)CC3)CC2)c2ccc(Cl)cc2)CCN(c2ncnc3[nH]ccc23)CC1 (stereo partly shown) [Compound I-256] | 5 to 10 |
| 1 to 5 | CC(C)N(CCNC(=O)CN1CCC(CN2CCN(C(=O)[C@H](NC(=O)c3cccc(C4CCCN(C(=O)CNCc5ccc(F)cc5F)C4)c3)C3CCCCC3)CC2)CC1)C[C@@H](C(=O)N1CCN(c2ncnc3c2[C@H](C)C[C@H]3O)CC1)c1ccc(Cl)cc1 (stereo partly shown) [Compound I-200] | 1 to 5 |
| 1 to 5 | C[C@@H]1C[C@@H](O)c2ncnc(N3CCN(C(=O)[C@H](CNC4CCN(CC5CCN(C(=O)[C@H](NC(=O)c6cccc(C7CCCN(C(=O)C8CC8)C7)c6)C6CCCCC6)CC5)CC4)c4ccc(Cl)cc4)CC3)c21 (stereo partly shown) [Compound I-214] | 1 to 5 |
| 1 to 5 | CCc1cccc(-c2cnc(C(=O)N3CCN(CC45CCC(NCC(=O)NCCNC[C@@H](C(=O)N6CCN(c7ncnc8c7[C@H](C)C[C@H]8O)CC6)c6ccc(Cl)cc6)(CC4)CO5)CC3)c(NC(C)=O)c2)c1 [Compound I-197] | 5 to 10 |
| 1 to 5 | NC1(C(=O)N[C@@H](CCN2CCN(C(=O)CN3CCC(OC4CCN(C(=O)c5cc(C6CCCN(C(=O)CNCc7ccc(F)cc7F)C6)ccc5F)CC4)CC3)CC2)c2ccc(Cl)cc2)CCN(c2ncnc3[nH]ccc23)CC1 (stereo partly shown) [Compound I-223] | 1 to 5 |
| > 10 | C[C@@H]1C[C@@H](O)c2ncnc(N3CCN(C(=O)[C@H](CNCCNC(=O)CNC45CCC(CN6CCN(C(=O)[C@H](NC(=O)c7cccc(C8CCCN(C(=O)C9CC9)C8)c7)C7CCCCC7)CC6)(CC4)OC5)c4ccc(Cl)cc4)CC3)c21 (stereo partly shown) [Compound I-215] | > 10 |
| 1 to 5 | CCc1cccc(-c2cnc(C(=O)N3CCN(CC4CCN(CC(=O)NCCNC[C@@H](C(=O)N5CCN(c6ncnc7c6[C@H](C)C[C@H]7O)CC5)c5ccc(Cl)cc5)CC4)CC3)c(NC(=O)CN3CCOCC3)c2)c1 [Compound I-173] | 1 to 5 |
| > 10 | CCc1cccc(-c2cnc(C(=O)N3CCC(CN4CCN(CC(=O)NCCNC[C@@H](C(=O)N5CCN(c6ncnc7c6[C@H](C)C[C@H]7O)CC5)c5ccc(Cl)cc5)CC4)CC3)c(NC(=O)CNCc3ccncn3)c2)c1 [Compound I-165] | > 10 |
| 5 to 10 | C[C@@H]1C[C@@H](O)c2ncnc(N3CCN(C(=O)[C@H](CNCCNC(=O)CNC45CCC(CN6CCN(C(=O)[C@H](NC(=O)c7cccc(C8CCCN(C(=O)CNCc9ccc(F)cc9F)C8)c7)C7CCCCC7)CC6)(CC4)OC5)c4ccc(Cl)cc4)CC3)c21 (stereo partly shown) [Compound I-203] | 5 to 10 |

More lines, now with the values behind:

| Structure (SMILES) | IC50 [2] [µM] | IC50 [1] [µM] |
| --- | --- | --- |
| CCc1cccc(-c2cnc(C(=O)N3CCC(OC4CCN(CC(=O)NCCNC[C@@H](C(=O)N5CCN(c6ncnc7c6[C@H](C)C[C@H]7O)CC5)c5ccc(Cl)cc5)CC4)CC3)c(NC(=O)CN3CCOCC3)c2)c1 [Compound I-174] | 1 to 5 | 1 to 5 |
| CCc1cccc(-c2cnc(C(=O)N3CCC(OC4CCN(CC(=O)NCCNC[C@@H](C(=O)N5CCN(c6ccnc7c6[C@H](C)C[C@H]7O)CC5)c5ccc(Cl)cc5)CC4)CC3)c(NC(=O)OC(C)(C)C)c2)c1 [Compound I-304] | 1 to 5 | 1 to 5 |
| CCc1cccc(-c2cnc(C(=O)NCCOCCNCC[C@H](NC(=O)C3(N)CCN(c4ncnc5[nH]ccc45)CC3)c3ccc(Cl)cc3)c(NC(=O)OC(C)(C)C)c2)c1 [Compound I-301] | 1 to 5 | 1 to 5 |
| NC1(C(=O)N[C@@H](CCN2CCN(C(=O)CN3CCC(OC4CCN(C(=O)c5cccc(C6CCCN(C(=O)CNC7CC7)C6)c5)CC4)CC3)CC2)c2ccc(Cl)cc2)CCN(c2ncnc3[nH]ccc23)CC1 (stereo partly shown) [Compound I-257] | > 10 | > 10 |
| C[C@@H]1C[C@@H](O)c2ncnc(N3CCN(C(=O)[C@H](CNCCNC(=O)CN4CCC(CN5CCNCC5)CC4)c4ccc(Cl)cc4)CC3)c21 [Compound I-328] | > 10 | > 10 |
| CCc1cccc(-c2cnc(C(=O)NCCOCCNCC(=O)NCCN(C[C@@H](C(=O)N3CCN(c4ncnc5c4[C@H](C)C[C@H]5O)CC3)c3ccc(Cl)cc3)C(C)C)c(NC(C)=O)c2)c1 [Compound I-216] | 1 to 5 | 1 to 5 |
| CCc1cccc(-c2cnc(C(=O)N3CCC(OC4CCN(CC(=O)NCCNC[C@@H](C(=O)N5CCN(c6ncnc7c6[C@H](C)C[C@H]7O)CC5)c5ccc(Cl)cc5)CC4)CC3)c(N)c2)c1 [Compound I-194] | 5 to 10 | 5 to 10 |
| NC1(C(=O)N[C@@H](CCN2CCC(OC3CCN(C(=O)c4cccc(C5CCCN(C(=O)CNCc6ccc(F)cc6F)C5)c4)CC3)CC2)c2ccc(Cl)cc2)CCN(c2ncnc3[nH]ccc23)CC1 (stereo partly shown) [Compound I-253] | 1 to 5 | 1 to 5 |
| CCc1cccc(-c2cnc(C(=O)NCCOCCNCC[C@H](NC(=O)C3(N)CCN(c4ncnc5[nH]ccc45)CC3)c3ccc(Cl)cc3)c(N)c2)c1 [Compound I-183] | 5 to 10 | 5 to 10 |
| CCc1cccc(-c2cnc(C(=O)NCCOCCNCC(=O)NCCN(C[C@@H](C(=O)N3CCN(c4ncnc5c4[C@H](C)C[C@H]5O)CC3)c3ccc(Cl)cc3)C(C)C)c(N)c2)c1 [Compound I-217] | 1 to 5 | 1 to 5 |
| NC1(C(=O)N[C@@H](CCN2CCN(C(=O)CN3CCC(OC4CCN(C(=O)c5cccc(C6CCCN(C(=O)C7CC7)C6)c5)CC4)CC3)CC2)c2ccc(Cl)cc2)CCN(c2ncnc3[nH]ccc23)CC1 (stereo partly shown) [Compound I-255] | > 10 | > 10 |
| C=CC(=O)N1CCN(c2ccc(CCC(=O)NCCOCCNCC[C@H](NC(=O)C3(N)CCN(c4ncnc5[nH]ccc45)CC3)c3ccc(Cl)cc3)o2)C(=O)C1 [Compound I-287] | – | > 10 |
| NC1(C(=O)N[C@@H](CCN2CCC(OC3CCN(C(=O)[C@H](NC(=O)c4cc(C5CCCN(C(=O)CNCc6ccc(F)cc6F)C5)ccc4F)C4CCCCC4)CC3)CC2)c2ccc(Cl)cc2)CCN(c2ncnc3[nH]ccc23)CC1 (stereo partly shown) [Compound I-222] | – | 1 to 5 |
